Experiments:
physchem = assay: physchem
How it was run: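 Solubility at pH 7.4 determined by stepwise addition of 200 mM phosphate buffer in 100 μL increments to 3 mg peptide, mixing briefly each time, until no insoluble material remained, then measured by liquid chromatography.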

C57BL/6J mice = assay: Oral glucose tolerance test (OGTT); type: in vivo; conditions: 3 nmol/kg s.c., 24 hours before glucose loading
Method: An oral glucose tolerance test (OGTT) was carried out using C57BL/6J mice with a 50% dextrose solution dosed at 5 ml/kg. Testing concentrations of 0.1 nmol/kg, 0.3 nmmol/kg, 3 nmol/kg or 10 nmol/kg were selected depending on the peptide. Each peptide or a vehicle (control group) was subcutaneously administered 24 hours (unless shown otherwise) before glucose loading and the blood glucose was measured at 0, 15, 30, and 60 minutes after glucose dosing.
% inhibition=(1−(AUC cpd−AUC naïve/AUC veh−AUC naïve))×100.

| SMILES | solubility (physchem; pH 7.4) [mg/mL] | Oral Glucose Tolerance Test Percent decrease in blood glucose AUC (%) over 60 mins (C57BL/6J mice) | solubility (physchem; pH 7.4, aqueous buffer) [mg/mL] | solubility (physchem; pH 7.4, aqueous buffer, pH 7.4 Phosphate Buffer - Solubility, 200 mM Phosphate buffer pH 7.4) [mg/mL] | solubility (physchem; pH 7.4, solubility in phosphate buffer at pH 7.4, 200 mM phosphate buffer pH 7.4) [mg/mL] |
| --- | --- | --- | --- | --- | --- |
| CC[C@H](C)[C@H](NC(=O)[C@H](CO)NC(=O)[C@H](Cc1ccc(O)cc1)NC(=O)[C@H](CC(=O)O)NC(=O)[C@H](CO)NC(=O)[C@@H](NC(=O)[C@H](Cc1ccccc1)NC(=O)[C@@H](NC(=O)CNC(=O)[C@H](CCC(=O)O)NC(=O)C(C)(C)NC(=O)[C@H](Cc1ccc(O)cc1)NC)[C@@H](C)O)[C@@H](C)CC)C(=O)N[C@@H](C)C(=O)N[C@@H](CCCCNC(=O)CNC(=O)CNC(=O)CNC(=O)CNC(=O)CNC(=O)CCCCCCCCCCCCCCCCC(=O)O)C(=O)N[C@@H](CC(=O)O)C(=O)N[C@@H](CCCNC(=N)N)C(=O)NC(C)(C)C(=O)N[C@@H](C)C(=O)N[C@@H](CCC(N)=O)C(=O)NC(C)(C)C(=O)N[C@@H](CC(=O)O)C(=O)N[C@@H](Cc1ccccc1)C(=O)N[C@H](C(=O)N[C@@H](CC(N)=O)C(=O)N[C@@H](Cc1c[nH]c2ccccc12)C(=O)N[C@@H](CC(C)C)C(=O)N[C@@H](CC(C)C)C(=O)N[C@@H](C)C(=O)N[C@@H](CCC(N)=O)C(=O)N[C@@H](CCCNC(=N)N)C(=O)NCC(=O)O)C(C)C [Compound 63] | ≥ 15 | 41% (3 nmol/kg) | – | – | – |
| CC[C@H](C)[C@H](NC(=O)[C@H](CO)NC(=O)[C@H](Cc1ccc(O)cc1)NC(=O)[C@H](CC(=O)O)NC(=O)[C@H](CO)NC(=O)[C@@H](NC(=O)[C@H](Cc1ccccc1)NC(=O)[C@@H](NC(=O)CNC(=O)[C@H](CCC(=O)O)NC(=O)C(C)(C)NC(=O)[C@H](Cc1ccc(O)cc1)NC)[C@@H](C)O)[C@@H](C)CC)C(=O)N[C@@H](C)C(=O)N[C@@H](CCCCNC(=O)CNC(=O)CNC(=O)CNC(=O)CNC(=O)CNC(=O)CCCCCCCCCCCCCCCCC(=O)O)C(=O)N[C@@H](CC(=O)O)C(=O)N[C@@H](CCCNC(=N)N)C(=O)NC(C)(C)C(=O)N[C@@H](C)C(=O)N[C@@H](CCC(N)=O)C(=O)NC(C)(C)C(=O)N[C@@H](CC(=O)O)C(=O)N[C@@H](Cc1ccccc1)C(=O)N[C@H](C(=O)N[C@@H](CC(N)=O)C(=O)N[C@@H](Cc1c[nH]c2ccccc12)C(=O)N[C@@H](CC(C)C)C(=O)N[C@@H](CC(C)C)C(=O)N[C@@H](C)C(=O)N[C@@H](CCC(N)=O)C(=O)N[C@@H](CCCNC(=N)N)C(=O)N1CCC[C@H]1C(=O)N[C@@H](CO)C(=O)N[C@@H](CO)C(=O)NCC(=O)O)C(C)C [Compound 70] | ≥ 15 | 56% (3 nmol/kg) | ≥ 30 | – | – |
| CC[C@H](C)[C@H](NC(=O)[C@H](Cc1ccccc1)NC(=O)[C@@H](NC(=O)CNC(=O)[C@H](CCC(=O)O)NC(=O)C(C)(C)NC(=O)[C@H](Cc1ccc(O)cc1)NC)[C@@H](C)O)C(=O)N[C@@H](CO)C(=O)N[C@@H](CC(=O)O)C(=O)N[C@@H](Cc1ccc(O)cc1)C(=O)N[C@@H](CO)C(=O)N[C@H](C(=O)NC(C)(C)C(=O)N[C@@H](CCCCNC(=O)CNC(=O)CNC(=O)CNC(=O)CNC(=O)CNC(=O)CCCCCCCCCCCCCCCCC(=O)O)C(=O)N[C@@H](CC(=O)O)C(=O)N[C@@H](CCCNC(=N)N)C(=O)NC(C)(C)C(=O)N[C@@H](C)C(=O)N[C@@H](CCC(N)=O)C(=O)NC(C)(C)C(=O)N[C@@H](CC(N)=O)C(=O)N[C@@H](Cc1ccccc1)C(=O)N[C@H](C(=O)N[C@@H](CC(N)=O)C(=O)N[C@@H](Cc1c[nH]c2ccccc12)C(=O)N[C@@H](CC(C)C)C(=O)N[C@@H](CC(C)C)C(=O)N[C@@H](C)C(=O)N[C@@H](CCC(N)=O)C(=O)N[C@@H](CO)C(=O)N1CCC[C@H]1C(=O)N[C@@H](CO)C(=O)N[C@@H](CO)C(=O)NCC(=O)N[C@@H](C)C(=O)N1CCC[C@H]1C(=O)N1CCC[C@H]1C(=O)N1CCC[C@H]1C(=O)N[C@@H](CO)C(=O)O)C(C)C)[C@@H](C)CC [Compound 96] | – | 80% (3 nmol/kg) | – | ≥ 60 | ≥ 15 |
